IC50 data for 28 compounds are collected here from US20250082630A1, “METHODS OF TREATING BRAIN TUMOURS AND NEUROBLASTOMAS” (AstraZeneca AB, priority 2021, published 2025).

One assay concerns the target PARP2 (Homo sapiens (Human), UniProt Q9UGN5). The assay can be described thus: PARP fluorescence anisotropy binding assay, PARP2. On the procedure: Recombinant full length PARP2 protein was diluted to 6 nM with 50 mM Tris pH 8, 0.001% Triton X100, 10 mM MgCl2, 150 mM NaCl and incubated for four hours with an equivalent volume of 2 nM fluorescent probe diluted with 50 mM Tris pH 8, 0.001% Triton X100, 10 mM MgCl2, 150 mM NaCl. The final DMSO concentration of the probe was kept below 1% (v/v).
Fluorescence anisotropy of the probe when bound to the proteins was measured using a BMG Pherastar FSX® in the presence of test compounds or solvent control and the effect on anisotropy determined. % inhibition values for different test compound concentrations were calculated and fitted to a four parameter logistic plot in order to determine the IC50 value.
(In general: In fluorescence polarisation assays a small probe gives low polarisation when free and higher when bound to something large.)

Another assay deals with PARP1 (Homo sapiens (Human), UniProt P09874). The assay can be described thus: PARP fluorescence anisotropy binding assay, PARP1.
Sequence of PARP1 (P09874 whole entry): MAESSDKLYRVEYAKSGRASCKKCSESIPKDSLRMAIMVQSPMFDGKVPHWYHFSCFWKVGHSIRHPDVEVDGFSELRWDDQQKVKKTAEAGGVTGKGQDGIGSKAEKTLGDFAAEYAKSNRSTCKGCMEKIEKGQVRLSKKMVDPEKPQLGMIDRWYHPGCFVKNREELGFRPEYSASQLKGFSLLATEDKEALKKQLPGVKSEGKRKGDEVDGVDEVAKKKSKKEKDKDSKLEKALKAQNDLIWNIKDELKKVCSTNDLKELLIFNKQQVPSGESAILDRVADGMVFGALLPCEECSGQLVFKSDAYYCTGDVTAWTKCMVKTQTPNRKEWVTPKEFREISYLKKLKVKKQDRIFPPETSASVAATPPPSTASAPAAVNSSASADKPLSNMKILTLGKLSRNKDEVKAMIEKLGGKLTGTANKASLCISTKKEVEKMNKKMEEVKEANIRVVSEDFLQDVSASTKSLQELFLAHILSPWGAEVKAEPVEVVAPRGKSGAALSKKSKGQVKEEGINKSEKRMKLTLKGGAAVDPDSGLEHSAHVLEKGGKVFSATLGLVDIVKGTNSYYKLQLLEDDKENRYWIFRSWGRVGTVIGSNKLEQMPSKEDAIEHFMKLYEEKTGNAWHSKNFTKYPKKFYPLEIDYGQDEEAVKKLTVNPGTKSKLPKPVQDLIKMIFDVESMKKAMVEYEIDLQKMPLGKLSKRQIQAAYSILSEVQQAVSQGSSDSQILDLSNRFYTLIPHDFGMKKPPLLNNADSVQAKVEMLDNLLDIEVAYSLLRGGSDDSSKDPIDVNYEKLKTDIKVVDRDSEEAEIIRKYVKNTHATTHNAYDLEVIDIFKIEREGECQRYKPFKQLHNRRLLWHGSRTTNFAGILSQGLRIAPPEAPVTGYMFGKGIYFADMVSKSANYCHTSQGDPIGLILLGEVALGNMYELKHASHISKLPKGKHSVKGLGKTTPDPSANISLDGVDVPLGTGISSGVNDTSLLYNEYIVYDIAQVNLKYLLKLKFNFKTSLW

Structures are written as SMILES.

Sequence of PARP2 (Q9UGN5 whole entry): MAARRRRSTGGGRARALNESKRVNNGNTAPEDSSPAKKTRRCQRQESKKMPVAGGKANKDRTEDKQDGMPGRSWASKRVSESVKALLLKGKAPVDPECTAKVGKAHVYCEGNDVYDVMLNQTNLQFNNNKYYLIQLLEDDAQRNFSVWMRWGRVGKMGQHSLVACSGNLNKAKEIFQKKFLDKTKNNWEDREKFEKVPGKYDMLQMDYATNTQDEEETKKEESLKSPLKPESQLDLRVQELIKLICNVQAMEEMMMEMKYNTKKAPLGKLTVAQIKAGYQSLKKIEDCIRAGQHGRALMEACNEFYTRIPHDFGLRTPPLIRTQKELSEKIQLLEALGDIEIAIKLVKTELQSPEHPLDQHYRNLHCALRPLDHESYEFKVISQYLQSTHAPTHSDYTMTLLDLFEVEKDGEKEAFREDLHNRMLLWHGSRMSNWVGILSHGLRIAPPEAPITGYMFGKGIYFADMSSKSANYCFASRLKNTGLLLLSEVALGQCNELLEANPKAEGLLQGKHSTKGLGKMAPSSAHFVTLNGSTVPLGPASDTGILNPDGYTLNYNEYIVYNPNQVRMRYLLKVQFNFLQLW

For `CNC(=O)c1ccc(N2CCN(Cc3ccc4nc(C)c(=O)[nH]c4c3C)CC2)cn1` [Example 2, 5-[4-[(2,5-dimethyl-3-oxo-4H-quinoxalin-6-yl)methyl]piperazin-1-yl]-N-methyl-pyridine-2-carboxamide], the results for the IC50 at PARP2 and at PARP1 were 15000 nM and 11 nM, respectively.
Take `Cc1nc2ccc(CN3CCN(c4ccc(C(N)=O)nc4F)CC3)c(C)c2[nH]c1=O` [Example 5, 5-[4-[(2,5-dimethyl-3-oxo-4H-quinoxalin-6-yl)methyl]piperazin-1-yl]-6-fluoro-pyridine-2-carboxamide]: the IC50 (usually the concentration at which inhibition is half-maximal) at PARP2 is > 63000 nM; on PARP1 it was 5 nM.
Turning to `Cc1nc(C(N)=O)ccc1N1CCN(Cc2ccc3nc(C)c(=O)[nH]c3c2F)CC1` [Example 6, 5-[4-[(5-fluoro-2-methyl-3-oxo-4H-quinoxalin-6-yl)methyl]piperazin-1-yl]-6-methyl-pyridine-2-carboxamide], the IC50 at PARP2 is > 100000 nM; on PARP1 it was 4 nM.
`Cc1nc(C(N)=O)ccc1N1CCN(Cc2ccc3nc(C)c(=O)[nH]c3c2C)CC1` [Example 7, 5-[4-[(2,5-dimethyl-3-oxo-4H-quinoxalin-6-yl)methyl]piperazin-1-yl]-6-methyl-pyridine-2-carboxamide]: the figures for the IC50 on PARP2 and on PARP1 were 58000 nM and 6 nM, respectively.
The compound `CCc1nc2ccc(CN3CCN(c4ccc(C(=O)NC)nc4Cl)CC3)c(Cl)c2[nH]c1=O` [Example 8, 6-chloro-5-[4-[(5-chloro-2-ethyl-3-oxo-4H-quinoxalin-6-yl)methyl]piperazin-1-yl]-N-methyl-pyridine-2-carboxamide] displayed an IC50 at PARP1 of 4 nM.
The same measure, in the same setting: the value for `CCc1nc2ccc(CN3CCN(c4ccc(C(=O)NC)nc4)CC3)c(Cl)c2[nH]c1=O` [Example 10, 5-[4-[(5-chloro-2-ethyl-3-oxo-4H-quinoxalin-6-yl)methyl]piperazin-1-yl]-N-methyl-pyridine-2-carboxamide] was 13 nM; that for `CCc1nc2ccc(CN3CCN(c4ccc(C(=O)NC)nc4C)CC3)c(Cl)c2[nH]c1=O` [Example 11, 5-[4-[(5-chloro-2-ethyl-3-oxo-4H-quinoxalin-6-yl)methyl]piperazin-1-yl]-N,6-dimethyl-pyridine-2-carboxamide] was 3 nM; that for `CNC(=O)c1ccc(N2CCN(Cc3ccc4nc(C)c(=O)[nH]c4c3Cl)CC2)cn1` [Example 16, 5-[4-[(5-chloro-2-methyl-3-oxo-4H-quinoxalin-6-yl)methyl]piperazin-1-yl]-N-methyl-pyridine-2-carboxamide] was 10 nM.
Turning to `CNC(=O)c1ccc(N2CCN(Cc3ccc4nc(C)c(=O)[nH]c4c3Cl)CC2)c(F)n1` [Example 17, 5-[4-[(5-chloro-2-methyl-3-oxo-4H-quinoxalin-6-yl)methyl]piperazin-1-yl]-6-fluoro-N-methyl-pyridine-2-carboxamide], the IC50 at PARP1 turned out to be 6 nM.
`Cc1nc2ccc(CN3CCN(c4ccc(C(N)=O)nc4F)CC3)c(F)c2[nH]c1=O` [Example 22, 6-fluoro-5-[4-[(5-fluoro-2-methyl-3-oxo-4H-quinoxalin-6-yl)methyl]piperazin-1-yl]pyridine-2-carboxamide]: the IC50 amounted to 87000 nM at PARP2 and 6 nM at PARP1.
In the same order, the values of `CCc1nc2ccc(CN3CCN(c4ccc(C(N)=O)nc4)CC3)c(F)c2[nH]c1=O` [Example 25, 5-[4-[(2-ethyl-5-fluoro-3-oxo-4H-quinoxalin-6-yl)methyl]piperazin-1-yl]pyridine-2-carboxamide] are > 100000 nM and 5 nM.
Consider `CCc1nc2ccc(CN3CCN(c4ccc(C(N)=O)nc4C)CC3)c(F)c2[nH]c1=O` [Example 26, 5-[4-[(2-ethyl-5-fluoro-3-oxo-4H-quinoxalin-6-yl)methyl]piperazin-1-yl]-6-methyl-pyridine-2-carboxamide], for which the figures for the concentration for half-maximal inhibition (IC50) on PARP2 and on PARP1 were 88000 nM and 5 nM, respectively.
In the same order, the values of `CNC(=O)c1ccc(N2CCN(Cc3ccc4ncc(=O)[nH]c4c3F)CC2)cn1` [Example 33, 5-[4-[(5-fluoro-3-oxo-4H-quinoxalin-6-yl)methyl]piperazin-1-yl]-N-methyl-pyridine-2-carboxamide] are > 100000 nM and 167 nM.
In the same order, the values of `CNC(=O)c1ccc(N2CCN(Cc3ccc4ncc(=O)[nH]c4c3F)CC2)c(C)n1` [Example 35, 5-[4-[(5-fluoro-3-oxo-4H-quinoxalin-6-yl)methyl]piperazin-1-yl]-N,6-dimethyl-pyridine-2-carboxamide] are > 100000 nM and 30 nM.
On the same counts, the results for `CNC(=O)c1ccc(N2CCN(Cc3ccc4ncc(=O)[nH]c4c3F)CC2)c(F)n1` [Example 36, 6-fluoro-5-[4-[(5-fluoro-3-oxo-4H-quinoxalin-6-yl)methyl]piperazin-1-yl]-N-methyl-pyridine-2-carboxamide] are > 100000 nM and 22 nM.
Turning to `CCc1nc2ccc(CN3CCN(c4ccc(C(=O)NC)nc4C)CC3)c(C)c2[nH]c1=O` [Example 42, 5-[4-[(2-ethyl-5-methyl-3-oxo-4H-quinoxalin-6-yl)methyl]piperazin-1-yl]-N,6-dimethyl-pyridine-2-carboxamide], the IC50 at PARP2 was > 88000 nM; on PARP1, 5 nM.
On the same counts, the results for `CCc1nc2ccc(CN3CCN(c4ccc(C(=O)NC)nc4F)CC3)c(C)c2[nH]c1=O` [Example 43, 5-[4-[(2-ethyl-5-methyl-3-oxo-4H-quinoxalin-6-yl)methyl]piperazin-1-yl]-6-fluoro-N-methyl-pyridine-2-carboxamide] are > 100000 nM and 5 nM.
In the same order, the values of `CCc1nc2ccc(CN3CCN(c4ccc(C(=O)NC)nc4)CC3)c(C)c2[nH]c1=O` [Example 44, 5-[4-[(2-ethyl-5-methyl-3-oxo-4H-quinoxalin-6-yl)methyl]piperazin-1-yl]-N-methyl-pyridine-2-carboxamide] are > 100000 nM and 128 nM.
In the same order, the values of `CCNC(=O)c1ccc(N2CCN(Cc3ccc4nc(C)c(=O)[nH]c4c3F)CC2)c(C)n1` [Example 46, N-ethyl-5-[4-[(5-fluoro-2-methyl-3-oxo-4H-quinoxalin-6-yl)methyl]piperazin-1-yl]-6-methyl-pyridine-2-carboxamide] are > 100000 nM and 10 nM.
Regarding `CNC(=O)c1ccc(N2CCN(Cc3ccc4nc(C(F)(F)F)c(=O)[nH]c4c3F)CC2)cn1` [Example 50, 5-[4-[[5-fluoro-3-oxo-2-(trifluoromethyl)-4H-quinoxalin-6-yl]methyl]piperazin-1-yl]-N-methyl-pyridine-2-carboxamide], the IC50 on PARP2 turned out to be 35000 nM; on PARP1, 60 nM.
In the same order, the values of `CNC(=O)c1ccc(N2CCN(Cc3ccc4nc(C(C)C)c(=O)[nH]c4c3F)CC2)c(F)n1` [Example 51, 6-fluoro-5-[4-[(5-fluoro-2-isopropyl-3-oxo-4H-quinoxalin-6-yl)methyl]piperazin-1-yl]-N-methyl-pyridine-2-carboxamide] are 1200 nM and 6 nM.
In the same order, the values of `CNC(=O)c1ccc(N2CCN(Cc3ccc4nc(C(C)C)c(=O)[nH]c4c3F)CC2)c(C)n1` [Example 52, 5-[4-[(5-fluoro-2-isopropyl-3-oxo-4H-quinoxalin-6-yl)methyl]piperazin-1-yl]-N,6-dimethyl-pyridine-2-carboxamide] are 3800 nM and 85 nM.
In the same order, the values of `CNC(=O)c1ccc(N2CCN(Cc3ccc4nc(C(C)C)c(=O)[nH]c4c3F)CC2)cn1` [Example 53, 5-[4-[(5-fluoro-2-isopropyl-3-oxo-4H-quinoxalin-6-yl)methyl]piperazin-1-yl]-N-methyl-pyridine-2-carboxamide] are > 100000 nM and 26 nM.
In the case of `CNC(=O)c1ccc(N2CCN(Cc3ccc4nc(C5CC5)c(=O)[nH]c4c3F)CC2)c(F)n1` [Example 54, 5-[4-[(2-cyclopropyl-5-fluoro-3-oxo-4H-quinoxalin-6-yl)methyl]piperazin-1-yl]-6-fluoro-N-methyl-pyridine-2-carboxamide], the IC50 on PARP2 was > 100000 nM; on PARP1, 111 nM.
In the same order, the values of `CNC(=O)c1ccc(N2CCN(Cc3ccc4nc(C5CC5)c(=O)[nH]c4c3F)CC2)c(C)n1` [Example 55, 5-[4-[(2-cyclopropyl-5-fluoro-3-oxo-4H-quinoxalin-6-yl)methyl]piperazin-1-yl]-N,6-dimethyl-pyridine-2-carboxamide] are > 100000 nM and 5 nM.
In the same order, the values of `CNC(=O)c1ccc(N2CCN(Cc3ccc4nc(C5CC5)c(=O)[nH]c4c3F)CC2)cn1` [Example 56, 5-[4-[(2-cyclopropyl-5-fluoro-3-oxo-4H-quinoxalin-6-yl)methyl]piperazin-1-yl]-N-methyl-pyridine-2-carboxamide] are > 100000 nM and 8 nM.
Turning to `CNC(=O)c1ccc(N2CCN(Cc3ccc4nc(OC)c(=O)[nH]c4c3C)CC2)c(C)n1` [Example 57, 5-[4-[(2-methoxy-5-methyl-3-oxo-4H-quinoxalin-6-yl)methyl]piperazin-1-yl]-N,6-dimethyl-pyridine-2-carboxamide], the IC50 was > 100000 nM on PARP2 and 11 nM on PARP1.
In the same order, the values of `CNC(=O)c1ccc(N2CCN(Cc3ccc4nc(OC)c(=O)[nH]c4c3C)CC2)c(C(F)F)n1` [Example 59, 6-(difluoromethyl)-5-[4-[(2-methoxy-5-methyl-3-oxo-4H-quinoxalin-6-yl)methyl]piperazin-1-yl]-N-methyl-pyridine-2-carboxamide] are 2100 nM and 6 nM.
